The record followed here is patent publication US7109200B2, “Carbamate derivatives, process for producing the same and use thereof” (Takeda Pharmaceutical Company Limited, priority 2000, dated 2006).

One experiment deals with human FXa (Homo sapiens, UniProt P00742). Kind of experiment: Human activated coagulation factor X (FXa) inhibiting activity. Format: biochemical. The settings on record: substrate S-2765, 37° C., absorbance at 405 nm. The protocol:
(1) Human Activated Coagulation Factor X (FXa) Inhibiting Activity
Method: A cuvette was charged with 225 μl of 0.05 M tris buffer (pH 8.3) containing 0.145 M sodium chloride and 2 mM calcium chloride, 5 μl of a sample (test compound dissolved in dimethyl sulfoxide) and 10 μl of human FXa (0.3 unit/ml), which were reacted at 37° C. for 10 minutes and then combined with 10 μl of a substrate (3 mM, S-2765) and further reacted at 37° C. for 10 minutes. Then the reaction was terminated by adding 25 μl of 50% aqueous acetic acid, and the change in the absorbance at 405 nm was determined using a spectrophotometer to calculate the concentration at which the FXa effect was inhibited by 50% (IC50).

The subject of another experiment is Human normal plasma. As to the kind of experiment: In vitro clotting time measurement: prothrombin time (PT). The settings on record: PT 2-fold extending concentration (CT2), rabbit brain-derived tissue thromboplastin. The class given is biochemical. As to the method: (2) In vitro Clotting Time Measurement
(2-1) Prothrombin Time (PT) Measurement:
A PT-test WAKO (WAKO PURE CHEMICAL) was employed together with an automatic coagulometer (STA compact DIAGNOSTICA STAGO). 97 μl of Human normal plasma (fresh human plasma, FFP, SEKISUI KAGAKU KOGYO) was combined with 3 μl of a test substance and pre-incubated at 37° C. for 4 minutes. 50 μl of the plasma described above was combined with 100 μl of rabbit brain-derived tissue thromboplastin solution and the time for the clotting was measured. The test substance was used after dissolving in dimethyl sulfoxide (DMSO). A concentration required for 2-fold prolongation of the clotting time was calculated based on the clotting time observed when DMSO was added instead of the test substance.

human FXa, sequence (P00742 235-488 limits assumed): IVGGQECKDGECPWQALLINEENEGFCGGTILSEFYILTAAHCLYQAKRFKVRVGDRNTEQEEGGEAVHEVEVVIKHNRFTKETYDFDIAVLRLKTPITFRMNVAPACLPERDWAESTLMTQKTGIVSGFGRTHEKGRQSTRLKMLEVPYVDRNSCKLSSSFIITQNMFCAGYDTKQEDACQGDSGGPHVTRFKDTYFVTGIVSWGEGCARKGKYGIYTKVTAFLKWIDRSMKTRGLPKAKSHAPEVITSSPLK
human FXa, sequence (P00742 41-179 partner limits assumed): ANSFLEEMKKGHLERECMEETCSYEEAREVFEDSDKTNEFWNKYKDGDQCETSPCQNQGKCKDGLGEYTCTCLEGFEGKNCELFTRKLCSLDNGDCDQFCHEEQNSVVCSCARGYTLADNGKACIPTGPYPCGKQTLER

As for `CCOC(=O)NC1(CN2CCN(S(=O)(=O)c3ccc4cc(Cl)ccc4c3)CC2=O)CCN(c2ccncc2)CC1` [Example 1, 4-(6-Chloronaphthalene-2-sulfonyl)-1-[4-ethoxycarbonylamino-1-(4-pyridyl)-4-piperidylmethyl]-2-piperazinone], on human FXa, half-maximal inhibition (IC50) was put at 4.6 nM. Moreover, the “PT CT2” value in the experiment on Human normal plasma stood at 0.27 µM.
